Test: Normal safety test

O[C@@H]1CO[C@H]2[C@@H]1OC[C@@H]2O [isosorbide]
Normal safety test: no problem occurred

From patent US7964638B2, “Skin cosmetic and wrinkle-reducing agent” (Kao Corporation, priority 2005, dated 2011)
